The target of assay [1] is T1, NasF5053 (NascF5053) (Streptomyces sp. NRRL F-5053, UniProt A0A8I3B027, S284A/V288A).
T1 construct: codon-optimised gene in pET28a, E. coli BL21(DE3); heme protein
T1 sequence (A0A8I3B027 1-398 S284A/V288A): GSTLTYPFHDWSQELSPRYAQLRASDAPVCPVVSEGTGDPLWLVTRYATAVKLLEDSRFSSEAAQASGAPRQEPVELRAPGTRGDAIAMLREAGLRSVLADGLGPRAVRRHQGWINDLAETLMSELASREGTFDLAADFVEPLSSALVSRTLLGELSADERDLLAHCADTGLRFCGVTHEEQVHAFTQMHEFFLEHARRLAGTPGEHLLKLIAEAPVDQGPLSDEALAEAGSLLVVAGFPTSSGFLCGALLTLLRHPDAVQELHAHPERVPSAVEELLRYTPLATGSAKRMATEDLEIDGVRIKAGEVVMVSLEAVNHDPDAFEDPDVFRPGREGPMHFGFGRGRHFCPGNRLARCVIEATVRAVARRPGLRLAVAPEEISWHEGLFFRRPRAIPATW
Nature of the assay: UV-Vis difference spectra, Soret shift, hyperbolic fit. The settings on record: read-out: binding constant.

In another assay the target is T2, NasS1868 (Streptomyces sp. NRRL S-1868, UniProt A0ACD6BAV5).
T2 construct: codon-optimised gene in pMS1, Mycobacterium smegmatis mc2 155
T2 sequence (A0ACD6BAV5 1-401): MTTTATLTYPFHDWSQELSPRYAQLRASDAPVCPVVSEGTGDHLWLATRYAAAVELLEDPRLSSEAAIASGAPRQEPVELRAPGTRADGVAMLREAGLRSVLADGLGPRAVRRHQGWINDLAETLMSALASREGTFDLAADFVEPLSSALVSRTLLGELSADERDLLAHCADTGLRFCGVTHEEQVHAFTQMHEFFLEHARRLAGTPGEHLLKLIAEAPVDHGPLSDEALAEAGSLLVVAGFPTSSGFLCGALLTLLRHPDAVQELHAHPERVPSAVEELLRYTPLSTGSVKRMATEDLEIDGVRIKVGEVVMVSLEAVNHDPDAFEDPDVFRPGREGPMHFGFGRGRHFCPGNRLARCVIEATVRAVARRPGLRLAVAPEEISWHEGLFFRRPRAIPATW
Nature of the assay: product formation by UHPLC-MS. The settings on record: 1 mM substrate, 0.1 µM P450, spinach Fd/FdR, NADPH recycling, pH 7.5, 4 °C, 24 h; product aspergilazine A. Type of assay: biochemical.

Assay [2] concerns the target T3, NasF5053 (NascF5053) (Streptomyces sp. NRRL F-5053, UniProt A0A8I3B027, A86G/Q65I).
T3 construct: codon-optimised gene in pET28a, E. coli BL21(DE3); heme protein
T3 sequence (A0A8I3B027 1-398 Q65I/A86G): T1 sequence (A0A8I3B027 1-398 S284A/V288A) with Q65I, A86G, A284S, A288V
Nature of the assay: UV-Vis difference spectra, Soret shift, hyperbolic fit. As to conditions: read-out: binding constant.

The target of assay [3] is T4, NasF5053 (NascF5053) (Streptomyces sp. NRRL F-5053, UniProt A0A8I3B027).
T4 construct: codon-optimised gene in pET28a, E. coli BL21(DE3); heme protein
T4 sequence (A0A8I3B027 entry or part of it): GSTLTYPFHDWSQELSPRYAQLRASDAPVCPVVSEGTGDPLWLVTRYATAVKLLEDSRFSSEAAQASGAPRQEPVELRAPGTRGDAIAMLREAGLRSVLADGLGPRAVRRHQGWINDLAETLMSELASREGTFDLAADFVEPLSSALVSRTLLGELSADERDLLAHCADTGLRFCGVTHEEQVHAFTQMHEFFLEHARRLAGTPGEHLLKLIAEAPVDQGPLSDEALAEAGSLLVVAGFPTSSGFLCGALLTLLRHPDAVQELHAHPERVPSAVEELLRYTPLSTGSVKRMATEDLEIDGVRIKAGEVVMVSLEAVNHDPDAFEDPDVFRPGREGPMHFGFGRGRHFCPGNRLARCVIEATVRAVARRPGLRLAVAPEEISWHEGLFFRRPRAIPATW
The assay is described as above. The settings on record: read-out: binding constant.

The target in the next assay is T5, NasbB (Streptomyces sp., UniProt A0A7T3QX21).
T5 construct: codon-optimised gene in pMS1, Mycobacterium smegmatis mc2 155
T5 sequence (A0A7T3QX21 1-422): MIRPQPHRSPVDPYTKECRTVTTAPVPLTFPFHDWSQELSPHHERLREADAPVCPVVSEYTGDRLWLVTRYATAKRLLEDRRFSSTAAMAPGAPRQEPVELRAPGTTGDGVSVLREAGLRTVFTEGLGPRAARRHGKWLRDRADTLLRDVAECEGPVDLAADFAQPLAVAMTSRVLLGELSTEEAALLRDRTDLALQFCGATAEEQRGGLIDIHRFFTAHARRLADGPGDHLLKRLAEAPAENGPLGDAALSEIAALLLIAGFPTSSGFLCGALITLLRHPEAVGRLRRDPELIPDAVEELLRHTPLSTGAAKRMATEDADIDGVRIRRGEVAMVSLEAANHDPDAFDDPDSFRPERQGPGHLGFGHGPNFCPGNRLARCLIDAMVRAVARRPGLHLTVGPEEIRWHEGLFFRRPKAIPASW
In kind it is biochemical. As to conditions: […] substrate, […] P450, spinach Fd/FdR, NADPH recycling, pH […] °C, […] h; product NAS-B.

SMILES strings stand for the structures. Substitutions are numbered along the chain they refer to.

Turning to `O=C1N[C@@H](Cc2c[nH]c3ccccc23)C(=O)N2CCC[C@@H]12` [cWL-PL], the Kd at NasF5053 (NascF5053) [1] came out at 4.81 ± 0.26 µM; on NasF5053 (NascF5053) [2] it was 25.6 ± 1 µM; on NasF5053 (NascF5053) [3], 11.6 ± 2.1 µM. For the same compound, the entries for the “product formation by UHPLC-MS” value at NasS1868 and on NasbB were “NasS1868 can convert cWL-PL into Asp-A” and “NasbB was confirmed to efficiently dimerize the cWL-PL into NAS-B”, respectively.
